Data from patent publication US11852970B2, “Material for lithography, production method therefor, composition for lithography, pattern formation method, compound, resin, and method for purifying the compound or the resin” (Mitsubishi Gas Chemical Company, Inc., priority 2015, dated 2023).

test: Safe solvent solubility test of compound; assay type: physicochemical; conditions: amount of dissolution in propylene glycol monomethyl ether acetate at 23° C., ultrasonic 30 minutes, visual
Method: The solubility of the compound in propylene glycol monomethyl ether acetate was measured as the solubility of the compound in a safe solvent. The solubility was evaluated according to the following criteria utilizing the amount of dissolution in propylene glycol monomethyl ether acetate. The amount of dissolution was measured at 23° C. by precisely weighing the compound into a test tube, adding propylene glycol monomethyl ether acetate so as to attain a predetermined concentration, applying ultrasonic waves for 30 minutes in an ultrasonic cleaner, then visually observing the subsequent state of the fluid, and conducting evaluation on the basis of the concentration of the amount of complete dissolution. • A: 5.0% by mass≤Amount of dissolution • B: 3.0% by mass≤Amount of dissolution<5.0% by mass • C: Amount of dissolution<3.0% by mass (2) Storage Stability and Thin Film Formability of Resist Composition

SMILES | Safe solvent solubility test
Oc1ccc([Te](Cl)(Cl)c2ccc(O)cc2)cc1 [BHPT, bis(4-hydroxyphenyl)tellurium dichloride] | A (5.0% by mass≤Amount of dissolution)
CC1(OC(=O)COc2ccc([Te](Cl)(Cl)c3ccc(OCC(=O)OC4(C)C5CC6CC(C5)CC4C6)cc3)cc2)C2CC3CC(C2)CC1C3 (stereo not drawn) [BHPT-ADBAC, bis(4-(2-methyl-2-adamantyloxycarbonylmethoxy)phenyl)tellurium dichloride] | A (5.0% by mass≤Amount of dissolution)
CC(C)(C)OC(=O)Oc1ccc([Te](Cl)(Cl)c2ccc(OC(=O)OC(C)(C)C)cc2)cc1 [BHPT-BOC, bis(tert-butoxycarboxyphenyl)tellurium dichloride] | A (5.0% by mass≤Amount of dissolution)
CCOC(C)Oc1ccc([Te](Cl)(Cl)c2ccc(OC(C)OCC)cc2)cc1 (stereo not drawn) [BHPT-EE, bis(ethoxyethylphenyl)tellurium dichloride] | A (5.0% by mass≤Amount of dissolution)
Oc1ccc([Te](Cl)(Cl)c2ccc(O)c(-c3ccccc3)c2)cc1-c1ccccc1 [Ph-BHPT, bis(3-phenyl-4-hydroxyphenyl)tellurium dichloride] | A (5.0% by mass≤Amount of dissolution)
CC1(OC(=O)COc2ccc([Te](Cl)(Cl)c3ccc(OCC(=O)OC4(C)C5CC6CC(C5)CC4C6)c(-c4ccccc4)c3)cc2-c2ccccc2)C2CC3CC(C2)CC1C3 (stereo not drawn) [Ph-BHPT-ADBAC] | A (5.0% by mass≤Amount of dissolution)
Oc1ccc([Te]c2ccc(O)c(-c3ccccc3)c2)cc1-c1ccccc1 [Ph-TDP, bis(3-phenyl-4-hydroxyphenyl)tellurium] | A (5.0% by mass≤Amount of dissolution)
CC1(OC(=O)COc2ccc([Te]c3ccc(OCC(=O)OC4(C)C5CC6CC(C5)CC4C6)c(-c4ccccc4)c3)cc2-c2ccccc2)C2CC3CC(C2)CC1C3 (stereo not drawn) [Ph-TDP-ADBAC] | A (5.0% by mass≤Amount of dissolution)
CC(C)(C)OC(=O)COc1ccc([Te]c2ccc(OCC(=O)OC(C)(C)C)cc2)cc1 [Ph-TDP-BOC] | A (5.0% by mass≤Amount of dissolution)
CCOC(C)Oc1ccc([Te](Cl)(Cl)c2ccc(OC(C)OCC)c(-c3ccccc3)c2)cc1-c1ccccc1 (stereo not drawn) [Ph-TDP-EE] | A (5.0% by mass≤Amount of dissolution)
Oc1ccc([Te]c2ccc(O)cc2)cc1 [TDP, 4,4′-telluriumdiphenol] | A (5.0% by mass≤Amount of dissolution)
CC1(OC(=O)COc2ccc([Te]c3ccc(OCC(=O)OC4(C)C5CC6CC(C5)CC4C6)cc3)cc2)C2CC3CC(C2)CC1C3 (stereo not drawn) [TDP-ADBAC] | A (5.0% by mass≤Amount of dissolution)
